Molecular target: GST-tagged-Wee1 kinase (Homo sapiens, UniProt P30291)
Assay: Wee1 time-resolved fluorescence equilibrium binding assay (displacement of Oregon Green-labeled ATP-competitive kinase probe)
Settings: not given
Procedure: Wee1 kinase was assayed using a time-resolved fluorescence equilibrium binding assay monitoring displacement of a rapidly reversible Oregon Green-labeled ATP-competitive kinase probe (N-(2-(2-(2-(4-(4-(5-chloro-4-(2-(1-hydroxycyclobutyl)thiazol-5-yl)-1H-pyrrolo[2,3-b]pyridin-2-yl)phenyl)piperazin-1-yl)ethoxy)ethoxy)ethyl)-2′,7′-difluoro-3′,6′-dihydroxy-3-oxo-3H-spiro[isobenzofuran-1,9′-xanthene]-5-carboxamide) by competitive Wee1 inhibitors.

Chain of GST-tagged-Wee1 kinase (P30291 whole entry): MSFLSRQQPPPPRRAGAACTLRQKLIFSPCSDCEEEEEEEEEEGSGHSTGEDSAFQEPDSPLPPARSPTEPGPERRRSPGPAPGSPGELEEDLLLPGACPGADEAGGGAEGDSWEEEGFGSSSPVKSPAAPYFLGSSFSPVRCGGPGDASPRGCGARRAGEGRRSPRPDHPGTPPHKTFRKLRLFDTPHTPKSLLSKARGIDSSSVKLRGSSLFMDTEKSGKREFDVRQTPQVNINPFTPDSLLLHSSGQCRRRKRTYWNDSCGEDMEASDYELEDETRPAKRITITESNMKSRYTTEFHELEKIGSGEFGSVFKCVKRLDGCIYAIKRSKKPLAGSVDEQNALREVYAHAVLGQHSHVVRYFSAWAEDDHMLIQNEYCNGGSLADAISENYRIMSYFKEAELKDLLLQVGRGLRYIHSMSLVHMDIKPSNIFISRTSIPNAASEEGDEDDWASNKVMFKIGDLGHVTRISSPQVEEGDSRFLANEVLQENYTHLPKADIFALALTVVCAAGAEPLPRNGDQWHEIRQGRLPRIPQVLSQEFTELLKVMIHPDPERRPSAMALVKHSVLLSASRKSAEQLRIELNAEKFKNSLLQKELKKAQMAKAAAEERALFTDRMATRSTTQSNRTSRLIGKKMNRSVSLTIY

Ki | Structure (SMILES)
35 nM | Cc1nn(-c2c(Cl)cccc2Cl)c(=O)c2cnc(Nc3ccc4c(c3)CN(CC(F)(F)F)CC4(C)C)nc12 [Example 370, 6-(2,6-dichlorophenyl)-2-{[4,4-dimethyl-2-(2,2,2-trifluoroethyl)-1,2,3,4-tetrahydroisoquinolin-7-yl]amino}-8-methylpyrimido[4,5-d]pyridazin-5(6H)-one]
3.7 nM | Cn1cnc(-c2nn(-c3c(Cl)cncc3Cl)c(=O)c3cnc(Nc4ccc5c(c4)CNCC54CC4)nc23)c1 [Example 372, 6-(3,5-dichloropyridin-4-yl)-2-(2′,3′-dihydro-1′H-spiro[cyclopropane-1,4′-isoquinolin]-7′-ylamino)-8-(1-methyl-1H-imidazol-4-yl)pyrimido[4,5-d]pyridazin-5(6H)-one]
69 nM | Cn1cnc(-c2nn(-c3ccncc3Cl)c(=O)c3cnc(Nc4ccc5c(c4)CNCC54CC4)nc23)c1 [Example 373, 6-(3-chloropyridin-4-yl)-2-(2′,3′-dihydro-1′H-spiro[cyclopropane-1,4′-isoquinolin]-7′-ylamino)-8-(1-methyl-1H-imidazol-4-yl)pyrimido[4,5-d]pyridazin-5(6H)-one]
0.67 nM | CC(=O)N1CCN(c2ccc(Nc3ncc4c(=O)n(-c5c(Cl)cccc5Cl)nc(-c5ccccn5)c4n3)cc2)CC1 [Example 374, 2-{[4-(4-acetylpiperazin-1-yl)phenyl]amino}-6-(2,6-dichlorophenyl)-8-(pyridin-2-yl)pyrimido[4,5-d]pyridazin-5(6H)-one]
1.2 nM | CC(=O)N1Cc2cc(Nc3ncc4c(=O)n(-c5c(Cl)cccc5Cl)nc(-c5ccccn5)c4n3)ccc2C2(CC2)C1 [Example 375, 2-[(2′-acetyl-2′,3′-dihydro-1′H-spiro[cyclopropane-1,4′-isoquinolin]-7′-yl)amino]-6-(2,6-dichlorophenyl)-8-(pyridin-2-yl)pyrimido[4,5-d]pyridazin-5(6H)-one]
1.3 nM | CS(=O)(=O)N1CCN(c2ccc(Nc3ncc4c(=O)n(-c5c(Cl)cccc5Cl)nc(-c5ccccn5)c4n3)cc2)CC1 [Example 376, 6-(2,6-dichlorophenyl)-2-({4-[4-(methylsulfonyl)piperazin-1-yl]phenyl}amino)-8-(pyridin-2-yl)pyrimido[4,5-d]pyridazin-5(6H)-one]
1.3 nM | CS(=O)(=O)N1Cc2cc(Nc3ncc4c(=O)n(-c5c(Cl)cccc5Cl)nc(-c5ccccn5)c4n3)ccc2C2(CC2)C1 [Example 377, 6-(2,6-dichlorophenyl)-2-{[2′-(methylsulfonyl)-2′,3′-dihydro-1′H-spiro[cyclopropane-1,4′-isoquinolin]-7′-yl]amino}-8-(pyridin-2-yl)pyrimido[4,5-d]pyridazin-5(6H)-one]
0.49 nM | CC(=O)N1CCN(c2ccc(Nc3ncc4c(=O)n(-c5c(Cl)cccc5Cl)nc(-c5ccncc5)c4n3)cc2)CC1 [Example 378, 2-{[4-(4-acetylpiperazin-1-yl)phenyl]amino}-6-(2,6-dichlorophenyl)-8-(pyridin-4-yl)pyrimido[4,5-d]pyridazin-5(6H)-one]
0.45 nM | CC(=O)N1Cc2cc(Nc3ncc4c(=O)n(-c5c(Cl)cccc5Cl)nc(-c5ccncc5)c4n3)ccc2C2(CC2)C1 [Example 379, 2-[(2′-acetyl-2′,3′-dihydro-1′H-spiro[cyclopropane-1,4′-isoquinolin]-7′-yl)amino]-6-(2,6-dichlorophenyl)-8-(pyridin-4-yl)pyrimido[4,5-d]pyridazin-5(6H)-one]
0.61 nM | CS(=O)(=O)N1CCN(c2ccc(Nc3ncc4c(=O)n(-c5c(Cl)cccc5Cl)nc(-c5ccncc5)c4n3)cc2)CC1 [Example 380, 6-(2,6-dichlorophenyl)-2-({4-[4-(methylsulfonyl)piperazin-1-yl]phenyl}amino)-8-(pyridin-4-yl)pyrimido[4,5-d]pyridazin-5(6H)-one]
0.81 nM | CS(=O)(=O)N1Cc2cc(Nc3ncc4c(=O)n(-c5c(Cl)cccc5Cl)nc(-c5ccncc5)c4n3)ccc2C2(CC2)C1 [Example 381, 6-(2,6-dichlorophenyl)-2-{[2′-(methylsulfonyl)-2′,3′-dihydro-1′H-spiro[cyclopropane-1,4′-isoquinolin]-7′-yl]amino}-8-(pyridin-4-yl)pyrimido[4,5-d]pyridazin-5(6H)-one]
7.6 nM | CN1CCN(c2ccc(Nc3ncc4c(=O)n(-c5ccncc5Cl)nc(-c5ccncc5)c4n3)cc2)CC1 [Example 382, 6-(3-chloropyridin-4-yl)-2-{[4-(4-methylpiperazin-1-yl)phenyl]amino}-8-(pyridin-4-yl)pyrimido[4,5-d]pyridazin-5(6H)-one]
1.1 nM | O=c1c2cnc(Nc3ccc4c(c3)CNCC43CC3)nc2c(-c2ccncc2)nn1-c1ccncc1Cl [Example 383, 6-(3-chloropyridin-4-yl)-2-(2′,3′-dihydro-1′H-spiro[cyclopropane-1,4′-isoquinolin]-7′-ylamino)-8-(pyridin-4-yl)pyrimido[4,5-d]pyridazin-5(6H)-one]
13 nM | CN1CCN(c2ccc(Nc3ncc4c(=O)n(-c5ccncc5Cl)nc(-c5ccccn5)c4n3)cc2)CC1 [Example 384, 6-(3-chloropyridin-4-yl)-2-{[4-(4-methylpiperazin-1-yl)phenyl]amino}-8-(pyridin-2-yl)pyrimido[4,5-d]pyridazin-5(6H)-one]
7.2 nM | O=c1c2cnc(Nc3ccc4c(c3)CNCC43CC3)nc2c(-c2ccccn2)nn1-c1ccncc1Cl [Example 385, 6-(3-chloropyridin-4-yl)-2-(2′,3′-dihydro-1′H-spiro[cyclopropane-1,4′-isoquinolin]-7′-ylamino)-8-(pyridin-2-yl)pyrimido[4,5-d]pyridazin-5(6H)-one]
0.48 nM | CN1CCN(c2ccc(Nc3ncc4c(=O)n(-c5c(Cl)cccc5Cl)nc(C5CC5)c4n3)cc2)CC1 [Example 386, 8-cyclopropyl-6-(2,6-dichlorophenyl)-2-{[4-(4-methylpiperazin-1-yl)phenyl]amino}pyrimido[4,5-d]pyridazin-5(6H)-one]
0.33 nM | CCc1nn(-c2c(Cl)cccc2Cl)c(=O)c2cnc(Nc3ccc(N4CCN(C)CC4)cc3)nc12 [Example 388, 6-(2,6-dichlorophenyl)-8-ethyl-2-{[4-(4-methylpiperazin-1-yl)phenyl]amino}pyrimido[4,5-d]pyridazin-5(6H)-one]
0.28 nM | CN1Cc2cc(Nc3ncc4c(=O)n(-c5c(Cl)cccc5Cl)nc(C5CC5)c4n3)ccc2C2(CC2)C1 [Example 389, 8-cyclopropyl-6-(2,6-dichlorophenyl)-2-[(2′-methyl-2′,3′-dihydro-1′H-spiro[cyclopropane-1,4′-isoquinolin]-7′-yl)amino]pyrimido[4,5-d]pyridazin-5(6H)-one]
0.41 nM | O=c1c2cnc(Nc3ccc4c(c3)CNCC4)nc2c(C2CC2)nn1-c1c(Cl)cccc1Cl [Example 390, 8-cyclopropyl-6-(2,6-dichlorophenyl)-2-(1,2,3,4-tetrahydroisoquinolin-7-ylamino)pyrimido[4,5-d]pyridazin-5(6H)-one]
0.93 nM | O=c1c2cnc(Nc3ccc4c(c3)CNCC43CC3)nc2c(C2CC2)nn1-c1c(Cl)cccc1Cl [Example 391, 8-cyclopropyl-6-(2,6-dichlorophenyl)-2-(2′,3′-dihydro-1′H-spiro[cyclopropane-1,4′-isoquinolin]-7′-ylamino)pyrimido[4,5-d]pyridazin-5(6H)-one]
0.27 nM | O=c1c2cnc(Nc3ccc(N4CCNCC4)cc3)nc2c(C2CC2)nn1-c1c(Cl)cccc1Cl [Example 392, 8-cyclopropyl-6-(2,6-dichlorophenyl)-2-{[4-(piperazin-1-yl)phenyl]amino}pyrimido[4,5-d]pyridazin-5(6H)-one]
1 nM | Cc1nn(-c2c(Cl)cccc2Cl)c(=O)c2cnc(Nc3ccc(N4CCNCC4)cc3)nc12 [Example 393, 6-(2,6-dichlorophenyl)-8-methyl-2-{[4-(piperazin-1-yl)phenyl]amino}pyrimido[4,5-d]pyridazin-5(6H)-one]
1 nM | Cc1nn(-c2c(F)cccc2Cl)c(=O)c2cnc(Nc3ccc(N4CCNCC4)cc3)nc12 [Example 396, 6-(2-chloro-6-fluorophenyl)-8-methyl-2-{[4-(piperazin-1-yl)phenyl]amino}pyrimido[4,5-d]pyridazin-5(6H)-one]
1 nM | Cc1nn(-c2c(Cl)cccc2Cl)c(=O)c2cnc(Nc3ccc4c(c3)CC(N(C)C)C4)nc12 (stereo not drawn) [Example 397, 6-(2,6-dichlorophenyl)-2-{[2-(dimethylamino)-2,3-dihydro-1H-inden-5-yl]amino}-8-methylpyrimido[4,5-d]pyridazin-5(6H)-one]
1 nM | Cc1nn(-c2c(F)cccc2Cl)c(=O)c2cnc(Nc3ccc4c(c3)CNCC4)nc12 [Example 398, 6-(2-chloro-6-fluorophenyl)-8-methyl-2-(1,2,3,4-tetrahydroisoquinolin-7-ylamino)pyrimido[4,5-d]pyridazin-5(6H)-one]
18 nM | Cc1nn(-c2ncccc2Cl)c(=O)c2cnc(Nc3ccc(N4CCNCC4)cc3)nc12 [Example 399, 6-(3-chloropyridin-2-yl)-8-methyl-2-{[4-(piperazin-1-yl)phenyl]amino}pyrimido[4,5-d]pyridazin-5(6H)-one]
6.7 nM | Cc1nn(-c2ncccc2Cl)c(=O)c2cnc(Nc3ccc4c(c3)CNCC4)nc12 [Example 400, 6-(3-chloropyridin-2-yl)-8-methyl-2-(1,2,3,4-tetrahydroisoquinolin-7-ylamino)pyrimido[4,5-d]pyridazin-5(6H)-one]
0.22 nM | Cc1nn(-c2c(Cl)cccc2Cl)c(=O)c2cnc(Nc3ccc4c(c3)CN(C)CC43CC3)nc12 [Example 401, 6-(2,6-dichlorophenyl)-8-methyl-2-[(2′-methyl-2′,3′-dihydro-1′H-spiro[cyclopropane-1,4′-isoquinolin]-7′-yl)amino]pyrimido[4,5-d]pyridazin-5(6H)-one]

Same assay, conditions: read-out: Wee-1 inhibition Ki

Ki | Structure (SMILES)
0.2 nM | Cc1nn(-c2c(Cl)cccc2Cl)c(=O)c2cnc(Nc3ccc4c(c3)CNCC4)nc12 [Example 371]
1 nM | Cc1nn(-c2c(Cl)cccc2Cl)c(=O)c2cnc(Nc3ccc4c(c3)CNCC4)nc12 [Example 395]
